Tests used:
[1] = system: human MCF-7 breast carcinoma cells; assay: HTD cytotoxicity, growth inhibition of MCF-7 cells (Table 1); type: cell-based; settings: MCF-7, 72-hour incubation; ± standard deviation
[2] = system: A-549 human lung carcinoma; assay: In vitro sensitivity, sulforhodamine B cytotoxicity assay, A-549 (Table 2); type: cell-based; settings: 72-hour incubation; averaged from two separate experiments
Description: Briefly, 96-well microtiter plates were inoculated (100 μL/well) with 5×10^3 (A549) or 7.5×10^3 (OVCAR-3) cells/well, in RPMI-1640 supplemented with 10% FBS (growth media). The plates were incubated for 24 hr at 37° C., 100% humidity and 5% CO2. At 24 hours, growth media (100 μL) was added to designated “time zero” plates. Similarly, serial dilutions of drug or vehicle (in media) were added (100 μL aliquots) to the test and vehicle control wells at twice the predetermined highest concentration. […] Cells (including time zero plates) were then fixed with 50 μL of 50% trichloroacetic acid (TCA) (w:v) for adherent cells or 80% TCA for suspended cells, and plates refrigerated at 4° C. for 1 hr. […] The plates were then air-dried for 24 hr.

[3] = system: MCF-7 human breast carcinoma; assay: In vitro sensitivity, sulforhodamine B cytotoxicity assay, MCF-7 (Table 2); type: cell-based; settings: 72-hour incubation; averaged from two separate experiments
[4] = system: MCF-7/ADR (adriamycin-resistant); assay: In vitro sensitivity, sulforhodamine B cytotoxicity assay, MCF-7/ADR (Table 2); type: cell-based, human; settings: 72-hour incubation; averaged from two separate experiments
[5] = system: HT-29 human colon carcinoma cells; assay: In vitro sensitivity, sulforhodamine B cytotoxicity assay, HT-29 (Table 2); type: cell-based; settings: 72-hour incubation; averaged from two separate experiments
[6] = system: CDF1 female mice; assay: Acute toxicity of liposomal paclitaxel or paclitaxel derivative given intraperitoneally; settings: liposomes, i.p.
Description: Moreover, liposomes containing either paclitaxel or a 2′-(2-bromo) hydrophobic paclitaxel derivative (containing either a six-carbon (C-6), C-8, C-12, C-14 or C-16 acyl chain at the 2′ position) were administered, intraperitoneally in 5 doses, to SCID (severe combined inimunodeficiency) mice bearing a human ovarian cancer (OvCar 3), at a dose of 12.5 mg paclitaxel per kg or a dose of 50 mg paclitaxel derivative per kg.
CDF1 female mice, 5 or 10 mice per group, were intraperitoneally administered either paclitaxel-, 2′-C6-paclitaxel derivative-, or 2′-C16-paclitaxel derivative-containing liposomes, in a single dose, or 5 doses, of either 12.5, 25, 50, 100, 200, 300. 400 or 500 mg of paclitaxel or paclitaxel derivative per kg of mouse body weight.

Compound: CCCCCC(=O)OC(C(=O)OC1CC2(O)C(OC(=O)c3ccccc3)C3C4(OC(C)=O)COC4CC(OC(=O)CCCCC)C3(C)C(=O)C(OC(C)=O)C(=C1C)C2(C)C)C(NC(=O)c1ccccc1)c1ccccc1 (centres unmarked) [2′,7-diHexanoyl-]
- GI50 [1]: > 10000 nM

Compound: CCCCCCC(Br)C(=O)O[C@@H](C(=O)O[C@H]1C[C@@]2(O)[C@@H](OC(=O)c3ccccc3)[C@@H]3[C@]4(OC(C)=O)CO[C@@H]4C[C@H](O)[C@@]3(C)C(=O)[C@H](OC(C)=O)C(=C1C)C2(C)C)[C@@H](NC(=O)c1ccccc1)c1ccccc1 (some centres unmarked) [2′-2-Bromo-C8-Paclitaxel, 2′-(2-bromocapryanoyl) paclitaxel]
- GI50 [2]: 4.4 nM
- GI50 [3]: 2.9 nM
- GI50 [4]: > 10000 nM
- GI50 [5]: 3.1 nM

Compound: CC(=O)OC1C(=O)C2(C)C(OC(=O)CCCCCBr)CC3OCC3(OC(C)=O)C2C(OC(=O)c2ccccc2)C2(O)CC(OC(=O)C(O)C(NC(=O)c3ccccc3)c3ccccc3)C(C)=C1C2(C)C (centres unmarked) [7-6-Bromohexanoyl-]
- GI50 [1]: 18 ± 2 nM

Compound: CC(=O)OC1C(=O)C2(C)C(O)CC3OCC3(OC(C)=O)C2C(OC(=O)c2ccccc2)C2(O)CC(OC(=O)C(OC(=O)CCCCCBr)C(NC(=O)c3ccccc3)c3ccccc3)C(C)=C1C2(C)C (centres unmarked) [2′-6-Bromohexanoyl-]
- GI50 [1]: > 10000 nM

Compound: CCCCCCCCCCCCC(Br)C(=O)OC(C(=O)OC1CC2(O)C(OC(=O)c3ccccc3)C3C4(OC(C)=O)COC4CC(O)C3(C)C(=O)C(OC(C)=O)C(=C1C)C2(C)C)C(NC(=O)c1ccccc1)c1ccccc1 (centres unmarked) [2′-2-Bromo-C14-Paclitaxel, 2′-(2 bromomyrstanoyl) paclitaxel]
- GI50 [2]: 31.7 nM
- GI50 [3]: 16 nM
- GI50 [4]: > 10000 nM
- GI50 [5]: 20.6 nM

Compound: CCCCCC(=O)OC1CC2OCC2(OC(C)=O)C2C(OC(=O)c3ccccc3)C3(O)CC(OC(=O)C(O)C(NC(=O)c4ccccc4)c4ccccc4)C(C)=C(C(OC(C)=O)C(=O)C12C)C3(C)C (centres unmarked) [7-Hexanoyl-]
- GI50 [1]: 27 ± 19 nM

Compound: CCCCC(Br)C(=O)O[C@@H](C(=O)O[C@H]1C[C@@]2(O)[C@@H](OC(=O)c3ccccc3)[C@@H]3[C@]4(OC(C)=O)CO[C@@H]4C[C@H](O)[C@@]3(C)C(=O)[C@H](OC(C)=O)C(=C1C)C2(C)C)[C@@H](NC(=O)c1ccccc1)c1ccccc1 (mixture of isomers) [2′-2-Bromohexanoyl-, 2′-(R)-[(±)-2-Bromohexanoyl] taxol]
- GI50 [2]: 3.9 nM
- number of mice that died within the first 14 days post-injection/total ([6]; five doses of 50 mg/kg): 0/5
- number of mice that died within the first 14 days post-injection/total ([6]; single dose 200 mg/kg): 0/2
- number of mice that died within the first 14 days post-injection/total ([6]; single dose 300 mg/kg): 4/5
- number of mice that died within the first 14 days post-injection/total ([6]; single dose 400 mg/kg): 5/5
- number of mice that died within the first 14 days post-injection/total ([6]; single dose 500 mg/kg): 5/5
- GI50 [3]: 2.3 nM
- GI50 [4]: > 10000 nM
- GI50 [5]: 2.4 nM
- GI50 [1]: 3 ± 0.2 nM

Compound: CCCCCC(=O)OC(C(=O)OC1CC2(O)C(OC(=O)c3ccccc3)C3C4(OC(C)=O)COC4CC(O)C3(C)C(=O)C(OC(C)=O)C(=C1C)C2(C)C)C(NC(=O)c1ccccc1)c1ccccc1 (centres unmarked) [2′-Hexanoyl-]
- GI50 [1]: 500 ± 151 nM

Compound: CCCCCC(=O)OC1CC2OCC2(OC(C)=O)C2C(OC(=O)c3ccccc3)C3(O)CC(OC(=O)C(OC(C)=O)C(NC(=O)c4ccccc4)c4ccccc4)C(C)=C(C(OC(C)=O)C(=O)C12C)C3(C)C (centres unmarked) [2′-Acetyl-7-Hexanoyl-]
- GI50 [1]: 4460 ± 60 nM

Compound: CCCCCCCCCCC(Br)C(=O)OC(C(=O)OC1CC2(O)C(OC(=O)c3ccccc3)C3C4(OC(C)=O)COC4CC(O)C3(C)C(=O)C(OC(C)=O)C(=C1C)C2(C)C)C(NC(=O)c1ccccc1)c1ccccc1 (centres unmarked) [2′-2-Bromo-C12-Paclitaxel, 2′-(2 bromolauranoyl) paclitaxel]
- GI50 [2]: 4.4 nM
- GI50 [3]: 2.8 nM
- GI50 [4]: > 10000 nM
- GI50 [5]: 3.2 nM

Compound: CCCCC(Br)C(=O)OC1CC2OCC2(OC(C)=O)C2C(OC(=O)c3ccccc3)C3(O)CC(OC(=O)C(O)C(NC(=O)c4ccccc4)c4ccccc4)C(C)=C(C(OC(C)=O)C(=O)C12C)C3(C)C (centres unmarked) [7-2-Bromohexanoyl-]
- GI50 [1]: 4.6 ± 0.1 nM

— patent US6482850B2, “Hydrolysis-promoting hydrophobic taxane derivatives” (priority 1995, dated 2002)
